# Test results as given in ChEMBL document CHEMBL4251646, “Improved antibacterial activity of a marine peptide-N2 against intracellular Salmonella typhimurium by conjugating with cell-penetrating peptides-bLFcin6/Tat11” (Eur J Med Chem, 2018).
# Assays:
# Salmonella typhimurium [1] = experiment: Antibacterial activity against Salmonella typhimurium ATCC 14028 assessed as survival at 10 uM after 3 hrs by broth microdilution method; format: functional, Salmonella enterica subsp. enterica serovar Typhimurium
# Salmonella typhimurium [2] = experiment: Bactericidal activity against Salmonella typhimurium ATCC 14028 at 10 uM within 3 to 9 hrs; format: functional, Salmonella enterica subsp. enterica serovar Typhimurium
# Salmonella typhimurium [3] = experiment: Antibacterial activity against Salmonella typhimurium ATCC 14028 at pH 7 after 16 to 18 hrs by broth microdilution method; format: functional, Salmonella enterica subsp. enterica serovar Typhimurium; conditions: Salmonella enterica
# Salmonella typhimurium [4] = experiment: Bactericidal activity against Salmonella typhimurium ATCC 14028 infected in mouse RAW264.7 cells assessed as log reduction in intracellular bacterial load at 50 uM within 3 to 9 hrs in presence of gentamycin; format: functional, Salmonella enterica subsp. enterica serovar Typhimurium
# Salmonella typhimurium [5] = experiment: Antibacterial activity against Salmonella typhimurium ATCC 14028 at pH 5 after 16 to 18 hrs by broth microdilution method; format: functional, Salmonella enterica subsp. enterica serovar Typhimurium; conditions: Salmonella enterica
# Salmonella typhimurium [6] = experiment: Bactericidal activity against Salmonella typhimurium ATCC 14028 infected in mouse RAW264.7 cells assessed as log reduction in intracellular bacterial load at 100 uM within 3 to 9 hrs in presence of gentamycin; format: functional, Salmonella enterica subsp. enterica serovar Typhimurium
# Salmonella typhimurium [7] = experiment: Bactericidal activity against Salmonella typhimurium ATCC 14028 infected in mouse RAW264.7 cells assessed as log reduction in intracellular bacterial load at 20 uM within 3 to 9 hrs in presence of gentamycin; format: functional, Salmonella enterica subsp. enterica serovar Typhimurium
# Salmonella typhimurium [8] = experiment: Bactericidal activity against Salmonella typhimurium ATCC 14028 infected in mouse RAW264.7 cells assessed as log reduction in intracellular bacterial load at 10 uM after 10 hrs in presence of gentamycin; format: functional, Salmonella enterica subsp. enterica serovar Typhimurium
# [9] = Drug internalization in mouse RAW264.7 cells at 1 uM using FITC-labeled test compound after 0.5 hrs by flow cytometry; format: ADME, cell-based; conditions: raw264.7, 0.5 h
# [10] = Drug internalization in mouse RAW264.7 cells at 1 uM using FITC-labeled test compound after 2 hrs by flow cytometry; format: ADME, cell-based; conditions: raw264.7, 2 h
# [11] = Cytotoxicity against mouse RAW264.7 cells assessed as cell survival at 100 uM after 8 hrs by MTT assay; format: cell-based; conditions: read-out: Survival
# [12] = Drug uptake in mouse RAW264.7 cells at 5 uM using FITC-labeled test compound after 2 hrs by flow cytometry; format: ADME, cell-based; conditions: raw264.7, 2 h
# [13] = Drug uptake in mouse RAW264.7 cells at 5 uM using FITC-labeled test compound after 5 hrs by Hoechst 33342/FM 4-64 staining-based confocal microscopic analysis; format: ADME, cell-based; conditions: raw264.7, 5 h
# [14] = Drug internalization in mouse RAW264.7 cells using FITC-labeled test compound by flow cytometry; format: ADME, cell-based
# [15] = Drug uptake in mouse RAW264.7 cells at 5 uM using FITC-labeled test compound after 0.5 hrs by flow cytometry; format: ADME, cell-based; conditions: raw264.7, 0.5 h
SMILES,Survival (Salmonella typhimurium [1]) [×10⁵ CFU/ml],Activity (Salmonella typhimurium [2]),MIC (Salmonella typhimurium [3]) [µM],log(activity) (Salmonella typhimurium [4]),MIC (Salmonella typhimurium [5]) [µM],log(activity) (Salmonella typhimurium [6]),log(activity) (Salmonella typhimurium [7]),log(activity) (Salmonella typhimurium [8]),Drug uptake [9] [%],Drug uptake [10] [%],"viability at 8 h, 100 µM [11] [%]",Drug uptake [12] [%],Drug uptake [13],Drug uptake [14],Drug uptake [15] [%]
CC(C)[C@@H]1NC(=O)[C@H](C)NC(=O)[C@H](CC(N)=O)NC(=O)[C@H](CCCNC(=N)N)NC(=O)[C@H](Cc2ccc(O)cc2)NC(=O)[C@H](C(C)C)NC(=O)[C@@H]2CSSC[C@H](NC(=O)[C@H](C(C)C)NC(=O)[C@H](CCCNC(=N)N)NC1=O)C(=O)N[C@@H](Cc1cnc[nH]1)C(=O)N[C@@H](CCCNC(=N)N)C(=O)N[C@@H](CCCNC(=N)N)C(=O)N[C@H](C(=O)N[C@@H](CC(N)=O)C(=O)O)CSSC[C@H](NC(=O)[C@H](Cc1ccccc1)NC(=O)[C@H](C)NC(=O)[C@H](CCCNC(=N)N)NC(=O)[C@H](Cc1c[nH]c3ccccc13)NC(=O)[C@H](CCC(N)=O)NC(=O)[C@H](Cc1c[nH]c3ccccc13)NC(=O)[C@H](CCCNC(=N)N)NC(=O)[C@@H](N)CCCNC(=N)N)C(=O)N[C@@H](Cc1c[nH]c3ccccc13)C(=O)N[C@@H](CC(N)=O)C(=O)N[C@@H](C(C)C)C(=O)N2,1.9,34.22 - 91.35%,2.25,1.63,9,2.1,–,–,–,–,–,–,–,–,–
CC(C)[C@@H]1NC(=O)[C@H](C)NC(=O)[C@H](CC(N)=O)NC(=O)[C@H](CCCNC(=N)N)NC(=O)[C@H](Cc2ccc(O)cc2)NC(=O)[C@H](C(C)C)NC(=O)[C@@H]2CSSC[C@H](NC(=O)[C@H](C(C)C)NC(=O)[C@H](CCCNC(=N)N)NC1=O)C(=O)N[C@@H](Cc1cnc[nH]1)C(=O)N[C@@H](CCCNC(=N)N)C(=O)N[C@@H](CCCNC(=N)N)C(=O)N[C@H](C(=O)N[C@@H](CC(N)=O)C(=O)O)CSSC[C@H](NC(=O)[C@H](Cc1ccccc1)NC(=O)[C@H](C)NC(=O)[C@H](CCCNC(=N)N)NC(=O)[C@H](CCCNC(=N)N)NC(=O)[C@H](CCCNC(=N)N)NC(=O)[C@H](CCC(N)=O)NC(=O)[C@H](CCCNC(=N)N)NC(=O)[C@H](CCCNC(=N)N)NC(=O)[C@H](CCCCN)NC(=O)[C@H](CCCCN)NC(=O)[C@H](CCCNC(=N)N)NC(=O)CNC(=O)[C@@H](N)Cc1ccc(O)cc1)C(=O)N[C@@H](Cc1c[nH]c3ccccc13)C(=O)N[C@@H](CC(N)=O)C(=O)N[C@@H](C(C)C)C(=O)N2,1.5,48.28 - 98.85%,1.94,3.26,3.89,–,1.57,1.19,–,–,–,–,–,–,–
CC(C)[C@@H]1NC(=O)[C@H](C)NC(=O)[C@H](CC(N)=O)NC(=O)[C@H](CCCNC(=N)N)NC(=O)[C@H](Cc2ccc(O)cc2)NC(=O)[C@H](C(C)C)NC(=O)[C@@H]2CSSC[C@H](NC(=O)[C@H](C(C)C)NC(=O)[C@H](CCCNC(=N)N)NC1=O)C(=O)N[C@@H](Cc1c[nH]cn1)C(=O)N[C@@H](CCCNC(=N)N)C(=O)N[C@@H](CCCNC(=N)N)C(=O)N[C@H](C(=O)N[C@@H](CC(N)=O)C(=O)O)CSSC[C@H](NC(=O)[C@H](Cc1ccccc1)NC(=O)[C@H](C)N)C(=O)N[C@@H](Cc1c[nH]c3ccccc13)C(=O)N[C@@H](CC(N)=O)C(=O)N[C@@H](C(C)C)C(=O)N2,–,–,–,–,–,–,–,–,17.3,31.4,103,93.4,Not Active,Dose-dependent effect and Tde,50
